According to patent publication US12662674B2, “RNA nanoparticle for liver cancer treatment” (OHIO STATE INNOVATION FOUNDATION, priority 2019, dated 2026):

System: HepG2 cells
Assay: HSA synergy modeling of cell viability
Conditions: HSA model, Combenefit; FIG. 17C: 6WJ/HTL/miR122 and 6WJ/HTL/PTX nanoparticles
Excerpt: To study the synergy between miR122 and PTX in cytotoxicity induction, an MTT cell viability assay was first performed. […] Cell viability was used as an indicator to quantify the correlation of synergy between miR122 and PTX using Highest Single Agent (HSA) synergy modeling. The data was processed and quantified using Combenefit software to obtain the HSA synergy score between miR122 and PTX (FIG. 17C). […] The number represented the co-efficiency of synergy.
Cell viability was studied following MTT protocol in cytotoxicity assay. The result was presented by Prism 8.0 (Graph Pad). The viability result was entered into HSA synergy modeling by Combenefit and plotted by Prism 8.0.

CC(=O)O[C@H]1C(=O)[C@@]2(C)[C@H]([C@H](OC(=O)c3ccccc3)[C@]3(O)C[C@H](OC(=O)[C@H](O)[C@@H](NC(=O)c4ccccc4)c4ccccc4)C(C)=C1C3(C)C)[C@]1(OC(C)=O)CO[C@@H]1C[C@@H]2O [PTX, Paclitaxel]
concentration of highest synergy in cytotoxic induction: 3.2 µM
